Reference: patent US10821115B2, “Compounds that inhibit Mcl-1 protein” (priority 2017, dated 2020)
Where two headings read alike, the source gives them in different places.

Tests used:
[1] = target: recombinant human Mcl-1 (residues 171-327) / Bim interaction (Homo sapiens (Human), UniProt Q07820); assay: biochemical; format: binding; conditions: read-out: Mcl-1 HTRF IC50
[2] = tested on: human multiple myeloma cell line, OPM-2; assay: Cell viability assay (OPM-2 10 FBS), CellTiter-Glo; format: cell-based
Summary of the method: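 3000 cells/well, RPMI 1640 + 10% FBS; serial compound dilutions, 16 h, 37 °C/5% CO2.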

[3] = 0.1 nM Mcl-1(171-327), 0.05 nM biotin-Bim (51-76)
[4] = Homo sapiens, OPM-2, 16 h, read-out: OPM-2 10% FBS IC50 IP, OPM-2 cells, 10% FBS, 16 h incubation
[5] = TR-FRET, Mcl-1(171-327) / biotin-Bim (51-76)
[6] = Homo sapiens, OPM-2, 16 h, read-out: OPM-2 10% FBS IC50 IP, OPM-2 cells, 10% FBS, 16 h, CellTiter-Glo
[7] = read-out: OPM-2 10% FBS IC50 IP, OPM-2 cells, 10% FBS, 16 h, CellTiter-Glo

recombinant human Mcl-1 (residues 171-327) / Bim interaction, sequence (Q07820 171-327): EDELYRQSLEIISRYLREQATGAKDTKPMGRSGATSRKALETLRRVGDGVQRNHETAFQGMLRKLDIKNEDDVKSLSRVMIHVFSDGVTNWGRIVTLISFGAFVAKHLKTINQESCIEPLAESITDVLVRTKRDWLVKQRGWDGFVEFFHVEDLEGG

Structure (SMILES) | IC50 [1, 5] [nM] | IC50 [2, 6] [nM] | further results
COCC(C)(C)N1CCN(C[C@@]2(OC)/C=C/C[C@H](C)[C@@H](C)S(=O)(=O)NC(=O)c3ccc4c(c3)N(C[C@@H]3CC[C@H]32)C[C@@]2(CCCc3cc(Cl)ccc32)CO4)CC1 [Example 333, (1S,3′R,6′R,7′R,8′E,11′S,12′R)-6-chloro-7′-methoxy-7′-((4-(2-methoxy-1,1-dimethylethyl)-1-piperazinyl)methyl)-11′,12′-dimethyl-3,4-dihydro-2H,15′H-spiro[naphthalene-1,22′-[20]oxa[13]thia[1,14]diazatetracyclo [14.7.2.0~3,6~.0~19,24~]pentacosa[8,16,18,24]tetraen]-15′-one 13′,13′-dioxide] |  |  | IC50 [1, 3]: 0.088 nM; IC50 [2, 4]: 82 nM
CC[C@@H]1CCCC[C@](COC)(OC)[C@@H]2CC[C@H]2CN2C[C@@]3(CCCc4cc(Cl)ccc43)COc3ccc(cc32)C(=O)NS1(=O)=O [Example 100037, (1S,3′R,6′R,7′S,12′R)-6-chloro-12′-ethyl-7′-methoxy-7′-(methoxymethyl)-3,4-dihydro-2H,15′H-spiro[naphthalene-1,22′-[20]oxa[13]thia[1,14]diazatetracyclo [14.7.2.0~3,6~.0~19,24~]pentacosa[16,18,24]trien]-15′-one 13′,13′-dioxide] | 1.8 | 1920 | 
CO[C@]1(CCN2CCN3CCCC[C@@H]3C2)CCC[C@H](C)[C@@H](C)S(=O)(=O)NC(=O)c2ccc3c(c2)N(C[C@@H]2CC[C@H]21)C[C@@]1(CCCc2cc(Cl)ccc21)CO3 [Example 100592, (1S,3′R,6′R,7′S,11′S,12′R)-6-chloro-7′-methoxy-11′,12′-dimethyl-7′-(2-((9aR)-octahydro-2H-pyrido[1,2-a]pyrazin-2-yl)ethyl)-3,4-dihydro-2H,15′H-spiro[naphthalene-1,22′-[20]oxa[13]thia[1,14]diazatetracyclo [14.7.2.0~3,6~.0~19,24~]pentacosa[16,18,24]trien]-15′-one 13′,13′-dioxide] | 0.275 | 139 | 
C=CC[C@]1(O)CCC[C@H](C)[C@@H](C)S(=O)(=O)NC(=O)c2ccc3c(c2)N(C[C@@H]2CC[C@H]21)C[C@@]1(CCCc2cc(Cl)ccc21)CO3 (single isomer, unassigned) [Example 100273] | 5.66 |  | IC50 [2, 7]: 8660 nM
CO[C@]1(CN2CCN(C(C)(C)C)CC2)/C=C/C[C@H](C)[C@@H](C)S(=O)(=O)NC(=O)c2ccc3c(c2)N(C[C@@H]2CC[C@H]21)C[C@@]1(CCCc2cc(Cl)ccc21)CO3 [Example 307, (1S,3′R,6′R,7′R,8′E,11′S,12′R)-7′-((4-tert-butyl-1-piperazinyl)methyl)-6-chloro-7′-methoxy-11′,12′-dimethyl-3,4-dihydro-2H,15′H-spiro[naphthalene-1,22′-[20]oxa[13]thia[1,14]diazatetracyclo [14.7.2.0~3,6~.0~19,24~]pentacosa[8,16,18,24]tetraen]-15′-one 13′,13′-dioxide] |  |  | IC50 [1, 3]: 0.087 nM; IC50 [2, 4]: 41 nM
CCN(CC)C(=O)C[C@]1(O)CCC[C@H](C)[C@@H](C)S(=O)(=O)NC(=O)c2ccc3c(c2)N(C[C@@H]2CC[C@H]21)C[C@@]1(CCCc2cc(Cl)ccc21)CO3 [Example 100111, 2-((1S,3′R,6′R,7′R,11′S,12′R)-6-chloro-7′-hydroxy-11′,12′-dimethyl-13′,13′-dioxido-15′-oxo-3,4-dihydro-2H-spiro[naphthalene-1,22′-[20]oxa[13]thia[1,14]diazatetracyclo [14.7.2.0~3,6~.0~19,24~]pentacosa[16,18,24]trien]-7′-yl)-N,N-diethylacetamide] |  |  | IC50 [1]: 0.352 nM; IC50 [2, 7]: 687 nM
C[C@@H]1[C@@H](C)CCC[C@](O)([C@@H](C)C(=O)N(C)C)[C@@H]2CC[C@H]2CN2C[C@@]3(CCCc4cc(Cl)ccc43)COc3ccc(cc32)C(=O)NS1(=O)=O (single isomer, unassigned) [Example 100117] | 2.4 |  | IC50 [2, 7]: 3170 nM
Cc1onc(C[C@@]2(O)/C=C/C[C@H](C)[C@@H](C)S(=O)(=O)NC(=O)c3ccc4c(c3)N(C[C@@H]3CC[C@H]32)C[C@@]2(CCCc3cc(Cl)ccc32)CO4)c1C [Example 100573, (1S,3′R,6′R,7′R,8′E,11′S,12′R)-6-chloro-7′-((4,5-dimethyl-1,2-oxazol-3-yl)methyl)-7′-hydroxy-11′,12′-dimethyl-3,4-dihydro-2H,15′H-spiro[naphthalene-1,22′-[20]oxa[13]thia[1,14]diazatetracyclo [14.7.2.0~3,6~.0~19,24~]pentacosa[8,16,18,24]tetraen]-15′-one 13′,13′-dioxide] | 2.07 | 7390 | 
CO[C@@]1(Cc2nc(CN(C)C)c(C)o2)/C=C/C[C@H](C)[C@@H](C)S(=O)(=O)NC(=O)c2ccc3c(c2)N(C[C@@H]2CC[C@H]21)C[C@@]1(CCCc2cc(Cl)ccc21)CO3 [Example 100586, (1S,3′R,6′R,7′S,8′E,11′S,12′R)-6-chloro-7′-((4-((dimethylamino)methyl)-5-methyl-1,3-oxazol-2-yl)methyl)-7′-methoxy-11′,12′-dimethyl-3,4-dihydro-2H,15′H-spiro[naphthalene-1,22′-[20]oxa[13]thia[1,14]diazatetracyclo [14.7.2.0~3,6~.0~19,24~]pentacosa[8,16,18,24]tetraen]-15′-one 13′,13′-dioxide] | 0.074 | 453 | 
C[C@@H]1[C@@H](C)C/C=C/[C@@](O)(c2ncccn2)[C@@H]2CC[C@H]2CN2C[C@@]3(CCCc4cc(Cl)ccc43)COc3ccc(cc32)C(=O)NS1(=O)=O [Example 100275, (1S,3′R,6′R,7′S,8′E,11′S,12′R)-6-chloro-7′-hydroxy-11′,12′-dimethyl-7′-(2-pyrimidinyl)-3,4-dihydro-2H,15′H-spiro[naphthalene-1,22′-[20]oxa[13]thia[1,14]diazatetracyclo [14.7.2.0~3,6~.0~19,24~]pentacosa[8,16,18,24]tetraen]-15′-one 13′,13′-dioxide] | 0.113 | 309 | 
CO[C@@]1(Cc2nc(CO)c(C)o2)/C=C/C[C@H](C)[C@@H](C)S(=O)(=O)NC(=O)c2ccc3c(c2)N(C[C@@H]2CC[C@H]21)C[C@@]1(CCCc2cc(Cl)ccc21)CO3 [Example 100584, (1S,3′R,6′R,7′S,8′E,11′S,12′R)-6-chloro-7′-((4-(hydroxymethyl)-5-methyl-1,3-oxazol-2-yl)methyl)-7′-methoxy-11′,12′-dimethyl-3,4-dihydro-2H,15′H-spiro[naphthalene-1,22′-[20]oxa[13]thia[1,14]diazatetracyclo [14.7.2.0~3,6~.0~19,24~]pentacosa[8,16,18,24]tetraen]-15′-one 13′,13′-dioxide] | 0.139 | 349 | 
C[C@@H]1[C@@H](C)CCC[C@@](O)(Cc2nccn2C)[C@@H]2CC[C@H]2CN2C[C@@]3(CCCc4cc(Cl)ccc43)COc3ccc(cc32)C(=O)NS1(=O)=O [Example 100163, (1S,3′R,6′R,7′R,11′S,12′R)-6-chloro-7′-hydroxy-11′,12′-dimethyl-7′-((1-methyl-1H-imidazol-2-yl)methyl)-3,4-dihydro-2H,15′H-spiro[naphthalene-1,22′-[20]oxa[13]thia[1,14]diazatetracyclo [14.7.2.0~3,6~.0~19,24~]pentacosa[16,18,24]trien]-15′-one 13′,13′-dioxide] | 2.79 |  | IC50 [2, 7]: 1000 nM
CO[C@@]1(Cc2nnc(C)o2)/C=C/C[C@H](C)[C@@H](C)S(=O)(=O)NC(=O)c2ccc3c(c2)N(C[C@@H]2CC[C@H]21)C[C@@]1(CCCc2cc(Cl)ccc21)CO3 [Example 100512, (1S,3′R,6′R,7′S,8′E,11′S,12′R)-6-chloro-7′-methoxy-11′,12′-dimethyl-7′-((5-methyl-1,3,4-oxadiazol-2-yl)methyl)-3,4-dihydro-2H,15′H-spiro[naphthalene-1,22′-[20]oxa[13]thia[1,14]diazatetracyclo [14.7.2.0~3,6~.0~19,24~]pentacosa[8,16,18,24]tetraen]-15′-one 13′,13′-dioxide] | 0.415 | 1490 | 
C[C@@H]1[C@@H](C)CCC[C@@](C=O)(CN2CCOCC2)[C@@H]2CC[C@H]2CN2C[C@@]3(CCCc4cc(Cl)ccc43)COc3ccc(cc32)C(=O)NS1(=O)=O [Example 100336, (1S,3′R,6′R,7′S,11′S,12′R)-6-chloro-11′,12′-dimethyl-7′-(4-morpholinylmethyl)-15′-oxo-3,4-dihydro-2H-spiro[naphthalene-1,22′-[20]oxa[13]thia[1,14]diazatetracyclo [14.7.2.0~3,6~.0~19,24~]pentacosa[16,18,24]triene]-7′-carbaldehyde 13′,13′-dioxide] |  | 1810 | IC50 [1]: 1.12 nM
CO[C@]1(CC(=O)O)/C=C/C[C@H](C)[C@@H](C)S(=O)(=O)NC(=O)c2ccc3c(c2)N(C[C@@H]2CC[C@H]21)C[C@@]1(CCCc2cc(Cl)ccc21)CO3 [Example 100306, ((1S,3′R,6′R,7′R,8′E,11′S,12′R)-6-chloro-7′-methoxy-11′,12′-dimethyl-13′,13′-dioxido-15′-oxo-3,4-dihydro-2H-spiro[naphthalene-1,22′-[20]oxa[13]thia[1,14]diazatetracyclo [14.7.2.0~3,6~.0~19,24~]pentacosa[8,16,18,24]tetraen]-7′-yl)acetic acid] | 0.124 | 278 | 
C[C@@H]1[C@@H](C)C/C=C/[C@](O)(c2cccnc2F)[C@@H]2CC[C@H]2CN2C[C@@]3(CCCc4cc(Cl)ccc43)COc3ccc(cc32)C(=O)NS1(=O)=O (single isomer, unassigned) [Example 100313] | 0.129 |  | IC50 [2, 7]: 143 nM
COc1ccc([C@@]2(O)/C=C/C[C@H](C)[C@@H](C)S(=O)(=O)NC(=O)c3ccc4c(c3)N(C[C@@H]3CC[C@H]32)C[C@@]2(CCCc3cc(Cl)ccc32)CO4)cn1 (single isomer, unassigned) [Example 100362] | 0.888 | 2100 | 
